Twelve compounds from ChEMBL document CHEMBL1201862, “PubChem BioAssay data set” (2004) can be followed below.

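Cells were grown in 96-well plates and exposed to each compound for 48 hours at five concentrations; endpoints were interpolated linearly between bracketing concentrations, or set to the highest concentration if not reached. GI50: concentration for 50% inhibition of growth.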 Activity calls are given as the source filed them. No stated cut-off is given here; in the data, active = GI50 up to about 1.1 µM and inactive = higher.

Among the test systems are M14; HOP-92; SK-OV-3; SR; CCRF-CEM; 786-0; HT-29; SK-MEL-5; K562; SF-268; U-251; LOX IMVI; IGROV-1; RXF 393; KM12; SK-MEL-2; SK-MEL-28; NCI-H460.
Common to all, as to test: growth of human tumour cells (NCI), 48 h

For the compound `CCOC(=O)C1Cc2ccc3c4c(ccc(c24)C1)CC(C(=O)OCC)C3`, the GI50 in the test with M14, with HOP-92, with SK-OV-3, in the test with SR, in the test with CCRF-CEM and with 786-0 was > 100 µM (inactive) each time. Besides, the GI50 with HT-29, with SK-MEL-5, with K562, with SF-268, in the test on U-251 and in the test with LOX IMVI was > 100 µM (inactive) each time. Moreover, the GI50 in the test on IGROV-1, with RXF 393, in the test with KM12, with SK-MEL-2 and in the test on SK-MEL-28 was > 100 µM (inactive) each time.
As to `CCOC(=O)c1nc(-c2ccccc2)oc1OCC`, the GI50 with M14, in the test with SK-OV-3, in the test on CCRF-CEM, in the test on 786-0, with HT-29 and in the test with SK-MEL-5 was > 100 µM (inactive) in each case. The GI50 was 74.1 µM (inactive) in the test with K562; > 100 µM (inactive) in the test on SF-268; > 100 µM (inactive) in the test with U-251; 36.8 µM (inactive) in the test with LOX IMVI; > 100 µM (inactive) in the test with IGROV-1; > 100 µM (inactive) in the test with RXF 393. For the same compound, the GI50 in the test on KM12, in the test with NCI-H460 and in the test with SK-MEL-28 was > 100 µM (inactive) throughout.
As to `CCOC(=O)NC(=O)c1cn(CC(=O)NCC(=O)NCC(=O)NCCCN2CCN(CCCNC(=O)CNC(=O)CNC(=O)Cn3cc(C(=O)NC(=O)OCC)c(=O)[nH]c3=O)CC2)c(=O)[nH]c1=O`, the GI50 in the test with M14, in the test with HOP-92, with SK-OV-3, in the test with SR, with CCRF-CEM and in the test on 786-0 was > 100 µM (inactive) in each case. The GI50 in the test with HT-29, with SK-MEL-5, in the test with K562, with SF-268, in the test with U-251 and in the test with LOX IMVI was > 100 µM (inactive) throughout. Besides, the GI50 in the test on IGROV-1, in the test on KM12, in the test with NCI-H460, with SK-MEL-2 and in the test with SK-MEL-28 was > 100 µM (inactive) throughout.
Turning to `N/N=C(/C(=O)Nc1cccc(Cl)c1)C(C(=O)c1ccc(O)cc1O)C1OC(=O)c2ccccc21` (configuration not stated), the GI50 in the test on M14 is > 100 µM (inactive); in the test with SK-OV-3 it was > 100 µM (inactive); in the test on SR, 40.4 µM (inactive); in the test with CCRF-CEM, 35.1 µM (inactive); in the test with 786-0 it was > 100 µM (inactive); with HT-29, > 100 µM (inactive). The GI50 in the test with SK-MEL-5 was > 100 µM (inactive); with K562, > 100 µM (inactive); in the test on SF-268, 51.4 µM (inactive); with U-251, 46.9 µM (inactive); in the test with LOX IMVI it was 87.7 µM (inactive); in the test with IGROV-1, > 100 µM (inactive). The GI50 is > 100 µM (inactive) in the test on KM12, 52.2 µM (inactive) in the test on NCI-H460, > 100 µM (inactive) with SK-MEL-2 and > 100 µM (inactive) in the test with SK-MEL-28.
With `O=C(/C=C\c1cccc2ccccc12)c1ccc(Br)cc1`, the GI50 in the test on M14 is 18.1 µM (inactive); in the test on HOP-92, 36.5 µM (inactive); with SK-OV-3, 30.7 µM (inactive); with CCRF-CEM it was 20.9 µM (inactive); with 786-0, 19.2 µM (inactive); with HT-29, 18.2 µM (inactive). Moreover, the GI50 with SK-MEL-5 is 19.7 µM (inactive); in the test with K562 it was 18.1 µM (inactive); in the test on SF-268, 23.7 µM (inactive); in the test on U-251, 16.1 µM (inactive); in the test with IGROV-1, 23.6 µM (inactive); in the test with KM12, 15.1 µM (inactive). For the same compound, the figures for the GI50 with NCI-H460 and in the test with SK-MEL-28 were 18.4 µM (inactive) and 12.1 µM (inactive), respectively.
For the compound `O=C1CCN2CCC(=O)c3c2c(cc2ccccc32)N1`, the GI50 in the test with M14, in the test with SK-OV-3, with CCRF-CEM, in the test on 786-0, with HT-29 and with SK-MEL-5 was > 100 µM (inactive) throughout. Moreover, the GI50 is > 100 µM (inactive) in the test with K562; > 100 µM (inactive) in the test with SF-268; > 100 µM (inactive) in the test with U-251; > 100 µM (inactive) in the test on LOX IMVI; > 100 µM (inactive) with IGROV-1; 44.7 µM (inactive) in the test with RXF 393. Also, the GI50 with KM12, with NCI-H460 and in the test with SK-MEL-2 was > 100 µM (inactive) in each case.
As for `COC(=O)CCCCCOS(=O)(=O)c1ccc(C)cc1`, the GI50 with M14, in the test on HOP-92, in the test with SK-OV-3, in the test with SR, in the test on CCRF-CEM and in the test with 786-0 was > 100 µM (inactive) each time. Besides, the GI50 in the test with HT-29, in the test on SK-MEL-5, with K562, in the test on SF-268, in the test on U-251 and in the test on LOX IMVI was > 100 µM (inactive) in each case. Moreover, the GI50 in the test with IGROV-1, with RXF 393, in the test with KM12, in the test on NCI-H460, in the test on SK-MEL-2 and in the test with SK-MEL-28 was > 100 µM (inactive) each time.
On to `COC(=O)C1CCC(C)CC1=O` (configuration not stated), for which the GI50 with M14, with HOP-92, in the test on SK-OV-3, with CCRF-CEM, in the test on 786-0 and with HT-29 was > 100 µM (inactive) throughout. The GI50 with SK-MEL-5, in the test on K562, with SF-268, with U-251, with LOX IMVI and with IGROV-1 was > 100 µM (inactive) in each case. The GI50 in the test with RXF 393, in the test on KM12, in the test on NCI-H460, with SK-MEL-2 and in the test on SK-MEL-28 was > 100 µM (inactive) each time.
`COc1cc2c3c(c1OC)-c1ccccc1C(C(OC(C)=O)c1ccccc1)C3N(C)CC2` (configuration not stated): the GI50 in the test with M14 is 51.2 µM (inactive); with HOP-92, 21 µM (inactive); in the test with SK-OV-3 it was > 100 µM (inactive); in the test on CCRF-CEM, 25.1 µM (inactive); in the test with 786-0, 74.5 µM (inactive); in the test on HT-29 it was 38.3 µM (inactive). The GI50 in the test with SK-MEL-5 is 18.1 µM (inactive); in the test with K562, > 10 µM (inactive); in the test on SF-268 it was 93.8 µM (inactive); in the test with U-251 it was 34 µM (inactive); with LOX IMVI, 44.9 µM (inactive); with IGROV-1 it was > 100 µM (inactive). Also, the GI50 is 70.6 µM (inactive) in the test with RXF 393; 25.7 µM (inactive) in the test with KM12; 30.5 µM (inactive) with NCI-H460; 17.2 µM (inactive) in the test with SK-MEL-2; 31.8 µM (inactive) in the test with SK-MEL-28.
Turning to `CCCCCCCCCCCC(=O)OCC1OC(OC)C(NC(=O)N(CCCl)N=O)C(O)C1O` (configuration not stated), the GI50 with M14 is 11.1 µM (inactive); in the test on SR, 2.79 µM (inactive); in the test on CCRF-CEM it was 0.516 µM (active); in the test with 786-0 it was 0.621 µM (active); in the test on HT-29 it was 16.9 µM (inactive); in the test on SK-MEL-5, 13.1 µM (inactive). For the same compound, the GI50 in the test with K562 was 10.3 µM (inactive); in the test on SF-268, 2.32 µM (inactive); in the test on U-251 it was 7.06 µM (inactive); in the test with LOX IMVI, 6.27 µM (inactive); with IGROV-1, 29.7 µM (inactive); in the test with RXF 393, 13.3 µM (inactive). The GI50 was 17.3 µM (inactive) in the test with KM12, 5.22 µM (inactive) with NCI-H460, 26.3 µM (inactive) in the test on SK-MEL-2 and 15.8 µM (inactive) with SK-MEL-28.
For `COc1cc2c(c(OC)c1OC)-c1ccc(SC)c(=O)cc1[C@@H](NCc1cccc(C#N)c1)CC2`, the GI50 was 0.0188 µM (active) with M14; 0.0401 µM (active) in the test on HOP-92; 0.0115 µM (active) in the test with SK-OV-3; 0.00414 µM (active) with SR; 0.0229 µM (active) in the test on CCRF-CEM; 0.0332 µM (active) in the test with 786-0. In addition, the GI50 with HT-29 was 0.0154 µM (active); in the test with SK-MEL-5, 0.00693 µM (active); in the test on K562 it was 0.0361 µM (active); in the test with SF-268, 0.0164 µM (active); in the test with U-251, 0.0178 µM (active); in the test on LOX IMVI, 0.0184 µM (active). For the same compound, the GI50 is 0.057 µM (active) in the test on IGROV-1; 0.00408 µM (active) in the test on RXF 393; 0.00528 µM (active) in the test on KM12; 0.0268 µM (active) with NCI-H460; 0.0304 µM (active) in the test with SK-MEL-2; 0.0221 µM (active) in the test on SK-MEL-28.
For `O=C(NC12CC3CC(CC(C3)C1)C2)C(=O)c1c[nH]c2ccccc12`, the GI50 with M14 was 14 µM (inactive); in the test on HOP-92, 15.1 µM (inactive); in the test on SK-OV-3, 16 µM (inactive); with SR, 17.8 µM (inactive); in the test on CCRF-CEM, 16.4 µM (inactive); in the test on 786-0, 13.1 µM (inactive). Also, the GI50 with HT-29 is 2.83 µM (inactive); in the test with SK-MEL-5, 15.4 µM (inactive); with K562 it was 5.77 µM (inactive); in the test on SF-268, 16.6 µM (inactive); in the test on U-251 it was 13.5 µM (inactive); with LOX IMVI it was 13.1 µM (inactive). Also, the GI50 was 15.8 µM (inactive) in the test with IGROV-1; 13.9 µM (inactive) in the test with KM12; 12.1 µM (inactive) with NCI-H460; 17.9 µM (inactive) in the test on SK-MEL-2; 16.3 µM (inactive) in the test on SK-MEL-28.
